The target of this test is T1, Orco (Or83b) (Drosophila melanogaster, UniProt Q9VNB5).
T1 construct: full-length Orco in pcDNA3.1(-), expressed alone (no OrX) in HEK293 cells
T1 sequence (Q9VNB5 1-486): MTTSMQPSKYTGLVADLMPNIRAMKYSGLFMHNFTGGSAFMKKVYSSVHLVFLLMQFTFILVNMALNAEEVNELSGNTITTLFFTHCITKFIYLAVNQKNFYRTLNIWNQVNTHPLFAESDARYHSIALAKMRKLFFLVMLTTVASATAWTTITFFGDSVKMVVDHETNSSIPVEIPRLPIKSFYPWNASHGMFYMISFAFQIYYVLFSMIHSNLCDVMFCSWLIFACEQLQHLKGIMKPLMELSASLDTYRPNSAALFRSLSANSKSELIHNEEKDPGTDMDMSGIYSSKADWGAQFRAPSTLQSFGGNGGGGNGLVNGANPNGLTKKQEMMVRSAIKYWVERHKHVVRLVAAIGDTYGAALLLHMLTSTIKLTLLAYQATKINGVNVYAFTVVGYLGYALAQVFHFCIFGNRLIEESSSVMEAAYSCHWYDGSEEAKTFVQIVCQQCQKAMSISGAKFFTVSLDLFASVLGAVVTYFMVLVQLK
Put plainly: fura-2 calcium imaging, HEK293 cells. Type of test: cell-based. Conditions: block of VUAA1-evoked (100 or 50 uM) calcium rise; KB-R7943 100 uM (Methods); pH 7.4; Orco without OrX.

The structures appear in SMILES notation.

With `N=C(N)SCCc1ccc(OCc2ccc([N+](=O)[O-])cc2)cc1` [KB-R7943, 2-[4-[(4-nitrophenyl)methoxy]phenyl]ethyl ester carbamimidothiotic acid, monomethanesulfonate], the “fura-2 calcium imaging, HEK293 cells” value is reported as “we confirmed that KB-R7943 is blocking Orco”.

Values taken from PMC6038709, “The Drosophila melanogaster Na^+/Ca^2+ Exchanger CALX Controls the Ca^2+ Level in Olfactory Sensory Neurons at Rest and After Odorant Receptor Activation” (Frontiers in Cellular Neuroscience, 2018).
